Assay results reported in patent publication US9072293B2, “Cyclopropenes and method for applying cyclopropenes to agricultural products or crops” (Erum Biotechnologies Inc., priority 2010, dated 2015).
Values joined by “and” are separate entries in the source; they are usually repeats but may differ in a detail not shown here. Equal entries are not always repeated.

Assays:
[1] = 1,000 ppm (v/v) or less concentration, room temperature; cited from earlier work
tomato [2] = test: Experimental Example 1: Efficacy test on tomato using emulsion (reddening grade); type: in vivo; conditions: individual tomatoes n=4
tomato [3] = test: Experimental Example 2: Efficacy test on tomato using oil based formulation (reddening grade); type: in vivo; conditions: 1.0 mM oil-based formulation, individual tomatoes n=4
How it was run: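 Tomatoes (n=4 per group) sprayed to surface saturation with 1.0 mM oil-based (xylene/hexane) cyclopropene formulations, versus untreated and solvent controls. Kept 3 days at 25–30 °C; ripening scored 0–5 by area of red coloration.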

[4] = Relative chemical stability of cyclopropenes measured by 1H-NMR; type: physicochemical; conditions: for Stability (relative chemical stability, based on cyclopropenes having a chain length of 1): 1H-NMR, CDCl3, stored at −20° C. or room temperature, relative to chain length 1
How it was run: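 Compounds in CDCl3 NMR tubes stored at −20° C. or room temperature and followed by 1H-NMR. Integrals of characteristic 1-alkylcyclopropene peaks (4–6.5 ppm, 1H; 0.8–0.9 ppm, 2H) compared against 1,1,3,3-tetramethylurea internal standard (2.80 ppm); stability expressed relative to chain-length-1 analogue.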

[5] = 100 μM, Day 0, room temperature (25-30° C.)
[6] = 100 μM, Day 1, room temperature (25-30° C.)
[7] = 100 μM, Day 2, room temperature (25-30° C.)
[8] = 100 μM, Day 3, room temperature (25-30° C.)
[9] = 1.0 mM, Day 0, room temperature (25-30° C.)
[10] = 1.0 mM, Day 1, room temperature (25-30° C.)
[11] = 1.0 mM, Day 2, room temperature (25-30° C.)
[12] = 1.0 mM, Day 3, room temperature (25-30° C.)
[13] = Day 0, room temperature (25-30° C.)
[14] = Day 1, room temperature (25-30° C.)
[15] = Day 2, room temperature (25-30° C.)
[16] = Day 3, room temperature (25-30° C.)

Compound	half life [1] [h]	reddening level (grade 0 to 5) (tomato [2]; [5])	reddening level (grade 0 to 5) (tomato [2]; [6])	reddening level (grade 0 to 5) (tomato [2]; [7])	reddening level (grade 0 to 5) (tomato [2]; [8])	reddening level (grade 0 to 5) (tomato [2]; [9])	reddening level (grade 0 to 5) (tomato [2]; [10])	reddening level (grade 0 to 5) (tomato [2]; [11])	reddening level (grade 0 to 5) (tomato [2]; [12])	Tomato results: reddening level (grade 0 to 5) (tomato [3]; [13])	Tomato results: reddening level (grade 0 to 5) (tomato [3]; [14])	Tomato results: reddening level (grade 0 to 5) (tomato [3]; [15])	Tomato results: reddening level (grade 0 to 5) (tomato [3]; [16])	chemical stability (in words) [4]	Stability (relative chemical stability, based on cyclopropenes having a chain length of 1) [4]
CC1=CC1 [1-methylcyclopropene]	≥ 240														
C1=C(CCCCc2ccccc2)C1 [(4-Phenylbutyl), 1-(4-phenylbutyl)cyclopropene]		0 (an area in which the surface of tomato was colored in pink was 10% or less) (2×) and 1 (an area in which the surface of tomato was completely colored in red was 10 to 40%) and 2 (an area in which the surface of tomato was completely colored in red was 40 to 70%)	0 (an area in which the surface of tomato was colored in pink was 10% or less) (2×) and 1 (an area in which the surface of tomato was completely colored in red was 10 to 40%) and 2 (an area in which the surface of tomato was completely colored in red was 40 to 70%)	1 (an area in which the surface of tomato was completely colored in red was 10 to 40%) (2×) and 2 (an area in which the surface of tomato was completely colored in red was 40 to 70%) and 3 (an area in which the surface of tomato was completely colored in red was 70% or more and the bottom area remained green)	2 (an area in which the surface of tomato was completely colored in red was 40 to 70%) (2×) and 3 (an area in which the surface of tomato was completely colored in red was 70% or more and the bottom area remained green) and 4	0 (an area in which the surface of tomato was colored in pink was 10% or less) (2×) and 1 (an area in which the surface of tomato was completely colored in red was 10 to 40%) and 2 (an area in which the surface of tomato was completely colored in red was 40 to 70%)	0 (an area in which the surface of tomato was colored in pink was 10% or less) (2×) and 1 (an area in which the surface of tomato was completely colored in red was 10 to 40%) and 2 (an area in which the surface of tomato was completely colored in red was 40 to 70%)	0 (an area in which the surface of tomato was colored in pink was 10% or less) (2×) and 1 (an area in which the surface of tomato was completely colored in red was 10 to 40%) and 3 (an area in which the surface of tomato was completely colored in red was 70% or more and the bottom area remained green)	1 (an area in which the surface of tomato was completely colored in red was 10 to 40%) (2×) and 2 (an area in which the surface of tomato was completely colored in red was 40 to 70%) and 3 (an area in which the surface of tomato was completely colored in red was 70% or more and the bottom area remained green)	0 (an area in which the surface of tomato was colored in pink was 10% or less) (2×) and 1 (an area in which the surface of tomato was completely colored in red was 10 to 40%) and 2 (an area in which the surface of tomato was completely colored in red was 40 to 70%)	0 (an area in which the surface of tomato was colored in pink was 10% or less) (2×) and 1 (an area in which the surface of tomato was completely colored in red was 10 to 40%) and 2 (an area in which the surface of tomato was completely colored in red was 40 to 70%)	0 (an area in which the surface of tomato was colored in pink was 10% or less) (2×) and 1 (an area in which the surface of tomato was completely colored in red was 10 to 40%) and 3 (an area in which the surface of tomato was completely colored in red was 70% or more and the bottom area remained green)	1 (an area in which the surface of tomato was completely colored in red was 10 to 40%) and 0 (an area in which the surface of tomato was colored in pink was 10% or less) and 2 (an area in which the surface of tomato was completely colored in red was 40 to 70%) and 4	much more stable	>>10
C1=C(CCCCCc2ccccc2)C1 [(5-Phenylpentyl), 1-(5-phenylpentyl)cyclopropene]		0 (an area in which the surface of tomato was colored in pink was 10% or less) (2×) and 1 (an area in which the surface of tomato was completely colored in red was 10 to 40%) and 2 (an area in which the surface of tomato was completely colored in red was 40 to 70%)	0 (an area in which the surface of tomato was colored in pink was 10% or less) (2×) and 2 (an area in which the surface of tomato was completely colored in red was 40 to 70%) (2×)	0 (an area in which the surface of tomato was colored in pink was 10% or less) and 1 (an area in which the surface of tomato was completely colored in red was 10 to 40%) and 3 (an area in which the surface of tomato was completely colored in red was 70% or more and the bottom area remained green) (2×)	1 (an area in which the surface of tomato was completely colored in red was 10 to 40%) and 2 (an area in which the surface of tomato was completely colored in red was 40 to 70%) and 3 (an area in which the surface of tomato was completely colored in red was 70% or more and the bottom area remained green) and 4	0 (an area in which the surface of tomato was colored in pink was 10% or less) (2×) and 1 (an area in which the surface of tomato was completely colored in red was 10 to 40%) and 2 (an area in which the surface of tomato was completely colored in red was 40 to 70%)	0 (an area in which the surface of tomato was colored in pink was 10% or less) (2×) and 1 (an area in which the surface of tomato was completely colored in red was 10 to 40%) and 2 (an area in which the surface of tomato was completely colored in red was 40 to 70%)	0 (an area in which the surface of tomato was colored in pink was 10% or less) (2×) and 1 (an area in which the surface of tomato was completely colored in red was 10 to 40%) and 2 (an area in which the surface of tomato was completely colored in red was 40 to 70%)	0 (an area in which the surface of tomato was colored in pink was 10% or less) and 1 (an area in which the surface of tomato was completely colored in red was 10 to 40%) and 2 (an area in which the surface of tomato was completely colored in red was 40 to 70%) and 3 (an area in which the surface of tomato was completely colored in red was 70% or more and the bottom area remained green)	0 (an area in which the surface of tomato was colored in pink was 10% or less) (2×) and 1 (an area in which the surface of tomato was completely colored in red was 10 to 40%) and 2 (an area in which the surface of tomato was completely colored in red was 40 to 70%)	0 (an area in which the surface of tomato was colored in pink was 10% or less) (2×) and 1 (an area in which the surface of tomato was completely colored in red was 10 to 40%) and 2 (an area in which the surface of tomato was completely colored in red was 40 to 70%)	0 (an area in which the surface of tomato was colored in pink was 10% or less) and 1 (an area in which the surface of tomato was completely colored in red was 10 to 40%) and 2 (an area in which the surface of tomato was completely colored in red was 40 to 70%) and 3 (an area in which the surface of tomato was completely colored in red was 70% or more and the bottom area remained green)	1 (an area in which the surface of tomato was completely colored in red was 10 to 40%) (2×) and 3 (an area in which the surface of tomato was completely colored in red was 70% or more and the bottom area remained green) and 4	much more stable	>>10
